Target: T1, PI3Kγ (Homo sapiens, UniProt P48736)
T1 construct: HA; made in house; host or cells: Spodoptera frugiperda (Sf9) cells, baculovirus coinfection
Experiment: PI3Kγ in vitro kinase assay (32P-ATP, PIP2 lipid micelles, filter plate)
Type: biochemical
Conditions: purified recombinant p101/p110γ protein with G protein β1/γ2 subunits; 20 μM ATP; 25 μM PIP2; 20 minutes at room temperature
Method: Spodtera frugiperda cells, grown in ESF921 media, were coinfected with baculovirus expressing a glu-tagged p101 and baculovirus expressing an HA-tagged p110γ, at a 3:1 ratio of p101 baculovirus to p110γ baculovirus. Sf9 cells were grown to 1×10^7 total cells/mL in 10 L bioreactors and harvested 48-72 hours post infection. Samples of infected cells were then tested for expression of p101/p110γ PI3 kinase by immunoprecipitation and Western Blot analysis methods (see below). To purify PI3Kγ, 4 volumes of room temperature hypotonic lysis buffer (1 mM MgCl2, 1 mM DTT, 5 mM EGTA, 1 mM Pefabloc, 0.5 μM aprotinin, 5 μM leupeptin, 2 μM pepstatin, 5 μM E64, pH 8) per gram of cell paste, was poured onto frozen cell pellets with stirring, then lysed in a nitrogen “bomb” at 400 psi (599HC […], Parr Instrument Co, Moline, Ill.). NaCl was added to 150 mM, and sodium cholate was added to 1% and mixed for another 45 minutes. The lysates were clarified by centrifugation for 25 minutes at 14,000 rpm. The lysates were then loaded over anti-glu-linked Protein-G Sepaharose beads (Covance Research Products, Richmond, Calif.) using 20 mL resin/50 g cell paste. The column was washed with 15 volumes of wash buffer (1 mM DTT, 0.2 mM EGTA, 1 mM Pefabloc, 0.5 μM aprotinin, 5 μM leupeptin, 2 μM pepstatin, 5 μM E64, 150 mM NaCl, 1% sodium cholate, pH 8). PI3Kγ was eluted with 6 column volumes of wash buffer that contain 100 μg/mL of a peptide that competes for binding of the glu tag. The column fractions with the eluted protein (determined by taking OD280 readings) were collected and dialyzed in 0.2 mM EGTA, 1 mM DTT, 1 mM Pefabloc, 5 μM leupeptin, 0.5% sodium cholate, 150 mM NaCl, and 50% glycerol, pH 8. The fractions were stored at -80° C. until further use. Spodtera frugiperda cells were coinfected with baculovirus expressing a glu-tagged G protein β1 and baculovirus expressing a […], at a 1:1 ratio of glu-tagged G protein β1 baculovirus to G protein β2 baculovirus. Sf9 cells are grown in 10 L bioreactors and harvested 48-72 hours post infection. Samples of infected cells were tested for G protein β1/β2 expression by Western Blot analysis, as described below. Cell lysates were homogenized and loaded onto a column of glu-tagged beads as in Biological Example 1 and competed off the column with a glu peptide and processed as described in Biological Example 1. The inhibitory properties of the compounds in Table 1 were assayed in an in vitro PI3K assay. In a 96-well polypropylene plate, each well was spotted with […] of 50 times the desired final concentration of compound in DMSO. Purified recombinant p101/p110γ protein (0.03 μg; 2.7 nM) and G protein β1/γ2 subunits (0.09 μg; 57.7 nM) for each reaction was combined in the assay buffer (30 mM HEPES, 100 mM NaCl, 1 mM EGTA, and 1 mM DTT). ATP and [γ-^32P-ATP] (0.09 μCi) were added to this mixture so that the final ATP concentration in the reaction was 20 μM. Lipid micelles were formed by sonicating phosphatidylinositol4,5-diphosphate (PIP2), phosphatidylethanolamine (PE), and Na-cholate in the assay buffer for 10 minutes, adding MgCl2 and incubating on ice for 20 minutes, for final concentrations of 25 μM PIP2, 300 μM PE, 0.02% Na-cholate, and 10 mM MgCl2 in the reaction. The reactions were started by adding equal volumes lipid and enzyme mixture in a total volume of 50 μL, allowed to run for 20 minutes at room temperature, and stopped with 100 μL 75 mM H3PO4. The lipid product was transferred to a glass fiber filter plate and washed with 75 mM H3PO4 several times. The presence of radioactive lipid product (PIP3) was measured by adding Wallac Optiphase mix to each well and counting in a Wallac 1450 Trilux plate reader (PerkinElmer Life Sciences Inc., Boston, Mass. 02118). The IC50 for each compound tested is reported in μM in Table 1: […]

T1 sequence (P48736 whole entry, species assumed): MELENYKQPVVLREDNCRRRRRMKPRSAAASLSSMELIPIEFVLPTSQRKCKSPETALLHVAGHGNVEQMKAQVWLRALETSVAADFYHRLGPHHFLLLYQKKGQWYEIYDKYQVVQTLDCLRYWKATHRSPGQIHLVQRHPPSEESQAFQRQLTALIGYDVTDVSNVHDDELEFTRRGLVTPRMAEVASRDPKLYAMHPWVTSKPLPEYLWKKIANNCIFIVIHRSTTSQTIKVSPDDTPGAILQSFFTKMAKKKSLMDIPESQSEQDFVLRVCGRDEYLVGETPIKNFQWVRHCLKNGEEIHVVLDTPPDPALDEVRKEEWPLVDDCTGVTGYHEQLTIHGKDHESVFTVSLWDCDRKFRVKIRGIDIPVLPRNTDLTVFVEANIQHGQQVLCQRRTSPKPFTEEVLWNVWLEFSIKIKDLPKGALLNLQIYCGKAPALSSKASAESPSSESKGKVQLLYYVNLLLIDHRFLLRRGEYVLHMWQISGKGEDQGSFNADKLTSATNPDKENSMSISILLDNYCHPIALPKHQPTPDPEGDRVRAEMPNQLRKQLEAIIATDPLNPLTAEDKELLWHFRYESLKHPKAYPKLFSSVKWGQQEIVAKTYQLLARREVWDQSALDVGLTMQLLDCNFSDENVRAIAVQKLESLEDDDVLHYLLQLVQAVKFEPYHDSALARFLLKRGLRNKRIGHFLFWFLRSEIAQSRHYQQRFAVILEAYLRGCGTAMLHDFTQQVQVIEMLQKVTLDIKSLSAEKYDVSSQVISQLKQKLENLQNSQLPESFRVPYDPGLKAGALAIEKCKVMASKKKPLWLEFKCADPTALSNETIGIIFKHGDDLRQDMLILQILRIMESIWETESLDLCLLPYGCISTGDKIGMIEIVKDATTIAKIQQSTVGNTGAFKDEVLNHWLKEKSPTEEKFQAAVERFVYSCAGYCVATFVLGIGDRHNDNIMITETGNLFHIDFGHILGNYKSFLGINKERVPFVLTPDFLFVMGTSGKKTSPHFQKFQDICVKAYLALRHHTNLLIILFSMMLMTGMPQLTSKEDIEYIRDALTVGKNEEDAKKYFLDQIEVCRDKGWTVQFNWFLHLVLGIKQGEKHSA
T1 sequence (Q8WYR1 whole entry partner, species assumed): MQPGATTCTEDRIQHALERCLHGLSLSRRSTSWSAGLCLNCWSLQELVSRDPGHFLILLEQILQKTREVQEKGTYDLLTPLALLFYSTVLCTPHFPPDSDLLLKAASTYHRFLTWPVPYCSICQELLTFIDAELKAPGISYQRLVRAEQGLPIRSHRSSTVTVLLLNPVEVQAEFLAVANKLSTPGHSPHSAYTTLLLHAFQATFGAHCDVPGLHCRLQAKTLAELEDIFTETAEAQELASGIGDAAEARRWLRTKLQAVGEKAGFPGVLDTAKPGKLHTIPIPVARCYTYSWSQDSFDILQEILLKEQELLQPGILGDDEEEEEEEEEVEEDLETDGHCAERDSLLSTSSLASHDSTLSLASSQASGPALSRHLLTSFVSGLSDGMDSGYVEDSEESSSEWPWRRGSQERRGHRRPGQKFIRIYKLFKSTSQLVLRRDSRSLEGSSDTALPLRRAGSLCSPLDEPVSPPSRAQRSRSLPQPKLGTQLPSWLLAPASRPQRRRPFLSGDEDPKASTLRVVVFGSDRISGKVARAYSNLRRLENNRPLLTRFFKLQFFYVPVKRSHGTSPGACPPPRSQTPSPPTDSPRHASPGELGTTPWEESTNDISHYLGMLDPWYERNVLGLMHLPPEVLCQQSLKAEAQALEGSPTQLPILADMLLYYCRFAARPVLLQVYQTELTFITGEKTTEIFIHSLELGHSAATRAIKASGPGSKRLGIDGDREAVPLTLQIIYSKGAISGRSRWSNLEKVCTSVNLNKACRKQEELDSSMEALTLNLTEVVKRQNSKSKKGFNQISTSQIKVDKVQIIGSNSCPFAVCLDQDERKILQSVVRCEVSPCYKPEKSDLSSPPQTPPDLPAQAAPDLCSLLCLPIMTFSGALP

Compound	IC50 [nM]
COc1ccc2sc(C(=O)Nc3nnn[nH]3)c(Sc3ccc4c(c3)OCO4)c2c1 [Example 27, 3-(benzo[1,3]dioxol-5-ylsulfanyl)-5-methoxy-benzo[b]thiophene-2-carboxylic acid(1H-tetrazol-5-yl)-amide]	1690
COc1cc2sc(C(=O)Nc3nnn[nH]3)c(Sc3ccc(O)cc3)c2cc1OC [Example 28, 3-(4-hydroxy-phenylsulfanyl)-5,6-dimethoxy-benzo[b]thiophene-2-carboxylic acid(1H-tetrazol-5-yl)-amide]	1840
COc1cc2sc(C(=O)Nc3nnn[nH]3)c(Sc3ccoc3C)c2cc1OC [Example 29, 5,6-dimethoxy-3-(2-methyl-furan-3-ylsulfanyl)-benzo[b]thiophene-2-carboxylic acid(1H-tetrazol-5-yl)-amide]	2160
COc1cc2c(Sc3ccc(O)cc3)c(C(=O)Nc3nnn[nH]3)sc2cc1C [Example 30, 3-(4-Hydroxy-phenylsulfanyl)-5-methoxy-6-methyl-benzo[b]thiophene-2-carboxylic acid(1H-tetrazol-5-yl)-amide]	625
COC(=O)Cc1ccc(Sc2c(C(=O)Nc3nnn[nH]3)sc3cc(C)c(OC)cc23)cc1 [Example 31, {4-[5-Methoxy-6-methyl-2-(1H-tetrazol-5-ylcarbamoyl)-benzo[b]thiophen-3-ylsulfanyl]-phenyl}-acetic acid methyl ester]	3960
COC(=O)CCc1ccc(Sc2c(C(=O)Nc3nnn[nH]3)sc3cc(C)c(OC)cc23)cc1 [Example 32, 3-{4-[5-Methoxy-6-methyl-2-(1H-tetrazol-5-ylcarbamoyl)-benzo[b]thiophen-3-ylsulfanyl]-phenyl}-propionic acid methyl ester]	4530
COc1cccc(Sc2c(C(=O)Nc3nnn[nH]3)sc3cc(C)c(OC)cc23)c1 [Example 34, 5-Methoxy-3-(3-methoxy-phenylsulfanyl)-6-methyl-benzo[b]thiophene-2-carboxylic acid(1H-tetrazol-5-yl)-amide]	207
COc1cc2c(Sc3ccc(C(C)C)cc3)c(C(=O)Nc3nnn[nH]3)sc2cc1C [Example 35, 3-(4-Isopropyl-phenylsulfanyl)-5-methoxy-6-methyl-benzo[b]thiophene-2-carboxylic acid(1H-tetrazol-5-yl)-amide]	370
COc1cc2sc(C(=O)Nc3nnn[nH]3)c(Sc3cccc(O)c3)c2cc1OC [Example 36, 3-(3-Hydroxy-phenylsulfanyl)-5,6-dimethoxy-benzo[b]thiophenes-2-carboxylic acid(1H-tetrazol-5-yl)-amide]	1880
COc1ccc(Sc2c(C(=O)Nc3nnn[nH]3)sc3cc(C)c(OC)cc23)cc1 [Example 37, 5-Methoxy-3-(4-methoxy-phenylsulfanyl)-6-methyl-benzo[b]thiophene-2-carboxylic acid(1H-tetrazol-5-yl)-amide]	808
COc1cc2sc(C(=O)Nc3nnn[nH]3)c(Sc3ccc(O)cc3)c2cc1C [Example 38, 3-(4-Hydroxy-phenylsulfanyl)-6-methoxy-5-methyl-benzo[b]thiophene-2-carboxylic acid(1H-tetrazol-5-yl)-amide]	885
COc1cc2sc(C(=O)Nc3nnn[nH]3)c(Sc3cccc(O)c3)c2cc1C [Example 39, 3-(3-Hydroxy-phenylsulfanyl)-6-methoxy-5-methyl-benzo[b]thiophene-2-carboxylic acid(1H-tetrazol-5-yl)-amide]	980
COC(=O)Cc1ccc(Sc2c(C(=O)Nc3nnn[nH]3)sc3cc(OC)c(C)cc23)cc1 [Example 40, {4-[6-Methoxy-5-methyl-2-(1H-tetrazol-5-ylcarbamoyl)-benzo[b]thiophen-3-ylsulfanyl]-phenyl}-acetic acid methyl ester]	1260
COC(=O)CCc1ccc(Sc2c(C(=O)Nc3nnn[nH]3)sc3cc(OC)c(C)cc23)cc1 [Example 41, 3-{4-[6-Methoxy-5-methyl-2-(1H-tetrazol-5-ylcarbamoyl)-benzo[b]thiophen-3-ylsulfanyl]-phenyl}-propionic acid methyl ester]	4080
COc1cc2sc(C(=O)Nc3nnn[nH]3)c(Sc3cccc(C(F)(F)F)c3)c2cc1C [Example 42, 6-Methoxy-5-methyl-3-(3-trifluoromethyl-phenylsulfanyl)-benzo[b]thiophene-2-carboxylic acid(1H-tetrazol-5-yl)-amide]	2170
COc1cc2sc(C(=O)Nc3nnn[nH]3)c(SC(c3ccccc3)C(C)N(C)C(C)=O)c2cc1C (centres unmarked) [Example 44, 3-[2-(Acetyl-methyl-amino)-1-phenyl-propylsulfanyl]-6-methoxy-5-methyl-benzo[b]thiophene-2-carboxylic acid(1H-tetrazol-5-yl)-amide]	2780

Second part, the compound after the results:

IC50 [nM]	Compound
465	COc1cc2sc(C(=O)Nc3nnn[nH]3)c(Sc3cccc(Cl)c3)c2cc1C [Example 45, 3-(3-Chloro-phenylsulfanyl)-6-methoxy-5-methyl-benzo[b]thiophene-2-carboxylic acid(1H-tetrazol-5-yl)-amide]
600	COc1cccc(Sc2c(C(=O)Nc3nnn[nH]3)sc3cc(OC)c(C)cc23)c1 [Example 46, 6-Methoxy-3-(3-methoxy-phenylsulfanyl)-5-methyl-benzo[b]thiophene-2-carboxylic acid(1H-tetrazol-5-yl)-amide]
3130	COc1cc2sc(C(=O)Nc3nnn[nH]3)c(Sc3ccc(C(C)C)cc3)c2cc1C [Example 47, 3-(4-Isopropyl-phenylsulfanyl)-6-methoxy-5-methyl-benzo[b]thiophene-2-carboxylic acid(1H-tetrazol-5-yl)-amide]
1290	COC(=O)Cc1ccc(Sc2c(C(=O)Nc3nnn[nH]3)sc3cc(OC)c(OC)cc23)cc1 [Example 49, {4-[5,6-Dimethoxy-2-(1H-tetrazol-5-ylcarbamoyl)-benzo[b]thiophen-3-ylsulfanyl]-phenyl}-acetic acid methyl ester]
3380	COc1cc2sc(C(=O)Nc3nnn[nH]3)c(Sc3cccc(C(F)(F)F)c3)c2cc1OC [Example 50, 5,6-Dimethoxy-3-(3-trifluoromethyl-phenylsulfanyl)-benzo[b]thiophene-2-carboxylic acid(1H-tetrazol-5-yl)-amide]
438	COc1cccc(Sc2c(C(=O)Nc3nnn[nH]3)sc3cc(OC)c(OC)cc23)c1 [Example 51, 5,6-Dimethoxy-3-(3-methoxy-phenylsulfanyl)-benzo[b]thiophene-2-carboxylic acid(1H-tetrazol-5-yl)-amide]
390	COc1cc2c(Sc3ccc(N(C)C)cc3)c(C(=O)Nc3nnn[nH]3)sc2cc1C [Example 53, 3-(4-Dimethylamino-phenylsulfanyl)-5-methoxy-6-methyl-benzo[b]thiophene-2-carboxylic acid(1H-tetrazol-5-yl)-amide]
50	COc1cc2c(SCCc3ccccc3)c(C(=O)Nc3nnn[nH]3)sc2cc1C [Example 54]
265	COc1cc2c(Sc3ccc(C(=O)O)cc3)c(C(=O)Nc3nnn[nH]3)sc2cc1C [Example 55, 4-[5-Methoxy-6-methyl-2-(1H-tetrazol-5-ylcarbamoyl)-benzo[b]thiophen-3-ylsulfanyl]-benzoic acid]
115	COc1cc2c(Sc3ccc(CC(=O)O)cc3)c(C(=O)Nc3nnn[nH]3)sc2cc1C [Example 56, {4-[5-Methoxy-6-methyl-2-(1H-tetrazol-5-ylcarbamoyl)-benzo[b]thiophen-3-ylsulfanyl]-phenyl}-acetic acid]

Reference: patent US20040248953A1, “3-Arylsulfanyl and 3-heteroarylsulfanyl substituted benzo[b]thiophenes as therapeutic agents” (priority 2003, published 2004)
